Source: the NIST ThermoML archive (doi:10.1021/je8008073)
Numbers after ± are expanded uncertainties.

Assay: wn = mass fraction of the nth substance listed
Details: Liquid; for mass density: Vibrating tube method; for viscosity: Falling or rolling sphere viscometry

## c1ccc2c(c1)CCCC2 [1,2,3,4-tetrahydronaphthalene] + CCCCCCCCCCCC
293.15 K, 100 kPa, w2 = 0.5
  mass density: 844.4 ± 1 kg/m3
293.15 K, 2000 kPa, w2 = 0.5
  mass density: 845.7 ± 1 kg/m3
293.15 K, 4000 kPa, w2 = 0.5
  mass density: 846.8 ± 1 kg/m3
293.15 K, 6000 kPa, w2 = 0.5
  mass density: 848 ± 1 kg/m3
293.15 K, 8000 kPa, w2 = 0.5
  mass density: 849.5 ± 1 kg/m3
293.15 K, 10000 kPa, w2 = 0.5
  mass density: 850.8 ± 1 kg/m3
293.15 K, 12000 kPa, w2 = 0.5
  mass density: 851.9 ± 1 kg/m3
293.15 K, 14000 kPa, w2 = 0.5
  mass density: 853.1 ± 1 kg/m3
293.15 K, 16000 kPa, w2 = 0.5
  mass density: 854.2 ± 1 kg/m3
293.15 K, 18000 kPa, w2 = 0.5
  mass density: 855.4 ± 1 kg/m3
293.15 K, 20000 kPa, w2 = 0.5
  mass density: 856.6 ± 1.1 kg/m3
295.65 K, 100 kPa, w2 = 0.5
  mass density: 842.4 ± 1 kg/m3
295.65 K, 2000 kPa, w2 = 0.5
  mass density: 843.6 ± 1 kg/m3
295.65 K, 4000 kPa, w2 = 0.5
  mass density: 844.9 ± 1 kg/m3
295.65 K, 6000 kPa, w2 = 0.5
  mass density: 846 ± 1 kg/m3
295.65 K, 8000 kPa, w2 = 0.5
  mass density: 847.4 ± 1 kg/m3
295.65 K, 10000 kPa, w2 = 0.5
  mass density: 848.6 ± 1 kg/m3
295.65 K, 12000 kPa, w2 = 0.5
  mass density: 849.8 ± 1 kg/m3
295.65 K, 14000 kPa, w2 = 0.5
  mass density: 851 ± 1 kg/m3
295.65 K, 16000 kPa, w2 = 0.5
  mass density: 852.1 ± 1 kg/m3
295.65 K, 18000 kPa, w2 = 0.5
  mass density: 853.3 ± 1 kg/m3
295.65 K, 20000 kPa, w2 = 0.5
  mass density: 854.4 ± 1.1 kg/m3
298.15 K, 100 kPa, w2 = 0.5
  viscosity: 1.46 ± 0.06 mPa·s
  mass density: 840.7 ± 1 kg/m3
298.15 K, 100 kPa, w1 = 0.48
  mass density: 835.7 ± 1 kg/m3
298.15 K, 100 kPa, w1 = 0.49
  mass density: 838.4 ± 1 kg/m3
298.15 K, 100 kPa, w1 = 0.5
  mass density: 840.7 ± 1 kg/m3
298.15 K, 100 kPa, w1 = 0.51
  mass density: 842.7 ± 1 kg/m3
298.15 K, 100 kPa, w1 = 0.52
  mass density: 844.8 ± 1 kg/m3
298.15 K, 2000 kPa, w1 = 0.48
  mass density: 836.9 ± 1 kg/m3
298.15 K, 2000 kPa, w1 = 0.49
  mass density: 839.7 ± 1 kg/m3
298.15 K, 2000 kPa, w1 = 0.5
  mass density: 842 ± 1 kg/m3
298.15 K, 2000 kPa, w1 = 0.51
  mass density: 844 ± 1 kg/m3
298.15 K, 2000 kPa, w1 = 0.52
  mass density: 846.1 ± 1 kg/m3
298.15 K, 2000 kPa, w2 = 0.5
  mass density: 842 ± 1 kg/m3
298.15 K, 4000 kPa, w2 = 0.5
  viscosity: 1.53 ± 0.06 mPa·s
  mass density: 843.4 ± 1 kg/m3
298.15 K, 4000 kPa, w1 = 0.48
  mass density: 838.3 ± 1 kg/m3
298.15 K, 4000 kPa, w1 = 0.49
  mass density: 841 ± 1 kg/m3
298.15 K, 4000 kPa, w1 = 0.5
  mass density: 843.4 ± 1 kg/m3
298.15 K, 4000 kPa, w1 = 0.51
  mass density: 845.3 ± 1 kg/m3
298.15 K, 4000 kPa, w1 = 0.52
  mass density: 847.5 ± 1 kg/m3
298.15 K, 6000 kPa, w1 = 0.48
  mass density: 839.6 ± 1 kg/m3
298.15 K, 6000 kPa, w1 = 0.49
  mass density: 842.2 ± 1 kg/m3
298.15 K, 6000 kPa, w1 = 0.5
  mass density: 844.7 ± 1 kg/m3
298.15 K, 6000 kPa, w1 = 0.51
  mass density: 846.5 ± 1 kg/m3
298.15 K, 6000 kPa, w1 = 0.52
  mass density: 848.7 ± 1 kg/m3
298.15 K, 6000 kPa, w2 = 0.5
  mass density: 844.7 ± 1 kg/m3
298.15 K, 8000 kPa, w1 = 0.48
  mass density: 840.9 ± 1 kg/m3
298.15 K, 8000 kPa, w1 = 0.49
  mass density: 843.5 ± 1 kg/m3
298.15 K, 8000 kPa, w1 = 0.5
  mass density: 845.9 ± 1 kg/m3
298.15 K, 8000 kPa, w1 = 0.51
  mass density: 847.8 ± 1 kg/m3
298.15 K, 8000 kPa, w1 = 0.52
  mass density: 849.9 ± 1 kg/m3
298.15 K, 8000 kPa, w2 = 0.5
  mass density: 845.9 ± 1 kg/m3
298.15 K, 10000 kPa, w2 = 0.5
  viscosity: 1.64 ± 0.07 mPa·s
  mass density: 847.1 ± 1 kg/m3
298.15 K, 10000 kPa, w1 = 0.48
  mass density: 842.1 ± 1 kg/m3
298.15 K, 10000 kPa, w1 = 0.49
  mass density: 844.7 ± 1 kg/m3
298.15 K, 10000 kPa, w1 = 0.5
  mass density: 847.1 ± 1 kg/m3
298.15 K, 10000 kPa, w1 = 0.51
  mass density: 848.8 ± 1 kg/m3
298.15 K, 10000 kPa, w1 = 0.52
  mass density: 851.1 ± 1 kg/m3
298.15 K, 12000 kPa, w1 = 0.48
  mass density: 843.3 ± 1 kg/m3
298.15 K, 12000 kPa, w1 = 0.49
  mass density: 845.9 ± 1 kg/m3
298.15 K, 12000 kPa, w1 = 0.5
  mass density: 848.4 ± 1 kg/m3
298.15 K, 12000 kPa, w1 = 0.51
  mass density: 850.3 ± 1 kg/m3
298.15 K, 12000 kPa, w1 = 0.52
  mass density: 852.2 ± 1 kg/m3
298.15 K, 12000 kPa, w2 = 0.5
  mass density: 848.4 ± 1 kg/m3
298.15 K, 14000 kPa, w1 = 0.48
  mass density: 844.6 ± 1.1 kg/m3
298.15 K, 14000 kPa, w1 = 0.49
  mass density: 847.1 ± 1 kg/m3
298.15 K, 14000 kPa, w1 = 0.5
  mass density: 849.5 ± 1 kg/m3
298.15 K, 14000 kPa, w1 = 0.51
  mass density: 851.5 ± 1 kg/m3
298.15 K, 14000 kPa, w1 = 0.52
  mass density: 853.5 ± 1 kg/m3
298.15 K, 14000 kPa, w2 = 0.5
  mass density: 849.5 ± 1 kg/m3
298.15 K, 16000 kPa, w1 = 0.48
  mass density: 845.7 ± 1.1 kg/m3
298.15 K, 16000 kPa, w1 = 0.49
  mass density: 848.3 ± 1.1 kg/m3
298.15 K, 16000 kPa, w1 = 0.5
  mass density: 850.7 ± 1.1 kg/m3
298.15 K, 16000 kPa, w1 = 0.51
  mass density: 852.7 ± 1 kg/m3
298.15 K, 16000 kPa, w1 = 0.52
  mass density: 854.6 ± 1 kg/m3
298.15 K, 16000 kPa, w2 = 0.5
  mass density: 850.7 ± 1 kg/m3
298.15 K, 18000 kPa, w1 = 0.48
  mass density: 846.9 ± 1.1 kg/m3
298.15 K, 18000 kPa, w1 = 0.49
  mass density: 849.3 ± 1.1 kg/m3
298.15 K, 18000 kPa, w1 = 0.5
  mass density: 851.9 ± 1.1 kg/m3
298.15 K, 18000 kPa, w1 = 0.51
  mass density: 853.8 ± 1.1 kg/m3
298.15 K, 18000 kPa, w1 = 0.52
  mass density: 855.7 ± 1.1 kg/m3
298.15 K, 18000 kPa, w2 = 0.5
  mass density: 851.9 ± 1 kg/m3
298.15 K, 20000 kPa, w1 = 0.48
  mass density: 848.1 ± 1.1 kg/m3
298.15 K, 20000 kPa, w1 = 0.49
  mass density: 850.6 ± 1.1 kg/m3
298.15 K, 20000 kPa, w1 = 0.5
  mass density: 853 ± 1.1 kg/m3
298.15 K, 20000 kPa, w1 = 0.51
  mass density: 855 ± 1.1 kg/m3
298.15 K, 20000 kPa, w1 = 0.52
  mass density: 857 ± 1.1 kg/m3
298.15 K, 20000 kPa, w2 = 0.5
  mass density: 853 ± 1.1 kg/m3
300.65 K, 100 kPa, w2 = 0.5
  mass density: 838.8 ± 1 kg/m3
300.65 K, 2000 kPa, w2 = 0.5
  mass density: 840 ± 1 kg/m3
300.65 K, 4000 kPa, w2 = 0.5
  mass density: 841.3 ± 1 kg/m3
300.65 K, 6000 kPa, w2 = 0.5
  mass density: 842.5 ± 1 kg/m3
300.65 K, 8000 kPa, w2 = 0.5
  mass density: 843.8 ± 1 kg/m3
300.65 K, 10000 kPa, w2 = 0.5
  mass density: 845 ± 1 kg/m3
300.65 K, 12000 kPa, w2 = 0.5
  mass density: 846.3 ± 1 kg/m3
300.65 K, 14000 kPa, w2 = 0.5
  mass density: 847.5 ± 1 kg/m3
300.65 K, 16000 kPa, w2 = 0.5
  mass density: 848.8 ± 1 kg/m3
300.65 K, 18000 kPa, w2 = 0.5
  mass density: 849.9 ± 1 kg/m3
300.65 K, 20000 kPa, w2 = 0.5
  mass density: 851 ± 1.1 kg/m3
303.15 K, 100 kPa, w2 = 0.5
  mass density: 837.3 ± 1 kg/m3
303.15 K, 2000 kPa, w2 = 0.5
  mass density: 838.5 ± 1 kg/m3
303.15 K, 4000 kPa, w2 = 0.5
  mass density: 839.9 ± 1 kg/m3
303.15 K, 6000 kPa, w2 = 0.5
  mass density: 841.1 ± 1 kg/m3
303.15 K, 8000 kPa, w2 = 0.5
  mass density: 842.4 ± 1 kg/m3
303.15 K, 10000 kPa, w2 = 0.5
  mass density: 843.6 ± 1 kg/m3
303.15 K, 12000 kPa, w2 = 0.5
  mass density: 844.9 ± 1 kg/m3
303.15 K, 14000 kPa, w2 = 0.5
  mass density: 846.1 ± 1 kg/m3
303.15 K, 16000 kPa, w2 = 0.5
  mass density: 847.5 ± 1 kg/m3
303.15 K, 18000 kPa, w2 = 0.5
  mass density: 848.7 ± 1 kg/m3
303.15 K, 20000 kPa, w2 = 0.5
  mass density: 849.8 ± 1.1 kg/m3
